Source: US20240336923A1, “DNAZYMES TARGETING CELL WALL SYNTHESIS ENZYMES AND USES THEREOF” (priority 2021, published 2024)
{CholTEG} = cholesterol-triethylene glycol

Columns and labels:
Assay type in all cases: cell-based
[1] = test system: Pseudomonas aeruginosa (MDR-PA, ATCC® BAA-3105™) biofilm; test: Scanning electron microscopy of biofilms grown with DNAzymes; settings: stainless steel mesh, TSB, DNAzyme 1.25 μM twice, 48 hours; FIG. 5C
Protocol: FIGS. 5A-5C: Biofilm macrostructure and morphology of single bacterial cells are affected by DNAzymes targeting murG. Biofilms were grown on top of dense stainless steel mesh in TSB in 12 well plates with or without indicated DNAzymes (1.25 μM). 24 hours afterwards, an additional dose of DNAzymes was added to treated samples. Following 48 hours of overall inoculation, biofilms were fixated and dehydrated. The mesh with associated biofilms was imaged with scanning electron microscopy (SEM). The results are of a representative field of 3 independent repeats. (FIG. 5A). NT, scr, and murG162 as above) (FIG. 5B) Enlargements of representative zones, enabling detection of single-cell morphologies. (FIG. 5C) Overall measurements of the maximal thickness of dehydrated biofilms. (NT, scr, and murG162 as above)
To determine the effects of the representative DNAzymes on macro- and microstructure of treated biofilms, 3D structures of treated and untreated biofilms were examined using scanning electron microscopy (SEM).
To study the effects of DNAzyme treatment on biofilm structure, 3D topographies of the biofilms were generated to compare multiple areas of the biofilm. The biofilms were dehydrated, resulting in a uniform loss of volume percentage.

[2] = test system: Pseudomonas aeruginosa (MDR-PA, ATCC® BAA-3105™) biofilm; test: Biofilm formation assays (crystal violet and CFU); settings: TSB, 96 wells, DNAzyme 2.5 μM, 16 hours; for biofilm formation (crystal violet): FIG. 4A; for viable cells within the biofilm (CFU): FIG. 4B
Protocol: FIGS. 4A-B are graphs showing reduction in bacterial density (FIG. 4A) or colony-forming units (FIG. 4B) (vertical axis) in biofilms grown either with or without the indicated DNAzymes (2.5 μM) in 96 wells with tryptic soy broth (TSB) for 16 hours, after which non-adhered cells were removed, and biofilms were washed and stained with 0.1% crystal violet (FIG. 4A) or replating (FIG. 4B). Average and standard mean are depicted by horizontal bars and brackets. Scr is a control scramble DNAzyme (Scr nucleotide sequence is 5′-[…]/3CholTEG/; SEQ ID NO: 44). NT is No Treatment.
Biofilm assays. Bacterial strains were streaked from frozen LB+glycerol stocks onto LB agar plates and incubated for 24 h at 37° C. Single colonies were grown overnight at 37° C. in 3 ml of LB. Cultures were diluted 1:100 in TSB in a 96-well plate, and DNAzymes were added to a final concentration of 2.5 μM. Cultures were incubated at 37° C. without shaking for 16 hours. Non-adherent cells were removed, and biofilms were washed with PBS and either stained with crystal violet (0.1%), or biofilm cells were extracted using mild sonication (2-4 pulses of 5 seconds, amplitude 30%) for CFU determination. CFU was measured using serial dilutions of the bacterial suspensions and spots were plated on LB plates. CFU was determined as above.
To measure the ability of DNAzymes that target a transcript encoding a cell wall biosynthesis enzyme, to affect biofilm formation, bacteria were grown in TSB on plates, under conditions that favor biofilm formation. Representative DNAzymes tested included murG-162, murG-207, and murG-366.

[3] = test system: Pseudomonas aeruginosa (MDR-PA, ATCC® BAA-3105™) pre-established biofilm; test: DNAzyme treatment of pre-established biofilms without or with meropenem (CFU, SEM); settings: DNAzyme 2.5 μM, 8 hours; for effect on meropenem activity against pre-established biofilms: PBS + 10 μM meropenem, FIG. 6B; for reduction of biofilm biomasses: mature 24 h biofilms, without or with meropenem, FIGS. 6A-6B
Protocol: FIGS. 6A-6C: DNAzymes can reduce viability and increase antibiotic sensitivity of cells from pre-established biofilms. Biofilms were grown in TSB in 12 well plates. 24 hours later, the medium was replaced with PBS (FIG. 6A) or with PBS+10 μM meropenem (FIG. 6B) in the presence or absence of the indicated DNAzymes, murG-162 or SCR (scramble control), […]. Following 8 hours, the adherent remaining cells were extracted, and the number of CFU was determined. (FIG. 6C) Biofilms were grown as described for FIG. 6B. The mesh with associated biofilms was imaged with SEM.
The effect of DNAzymes targeting murG on pre-established biofilms was studied by comparing the application of PBS, scrambled DNAzyme control (SCR), or indicated DNAzymes (162-murG, 207-murG, and 366-murG) on mature biofilms without or with the beta-lactam meropenem (FIGS. 6A-6B, respectively).
These findings were confirmed by SEM. Biofilms treated with sub-lethal concentrations of meropenem with control SCR DNAzyme were […] and had more texture. […] FIG. 6C presents an example of these findings, wherein SCR DNAzyme treated samples were compared to biofilms treated with murG162+meropenem.

[4] = test system: Pseudomonas aeruginosa strain ATCC® BAA-3105™; test: Intracellular DNAzyme quantification in bacteria grown in media (qPCR / flow cytometry); settings: LB + 32 μg/ml meropenem, 1.25 μM DNAzyme, 4 hours
Protocol: FIGS. 2A-2D. Uptake of fluorescent DNAzyme in media mimicking in vivo conditions, in the presence of subtoxic concentrations of meropenem as judged by flow cytometry. […] FIG. 2B is a graph showing the copy number of fluorescent murG-207 DNAzymes (Dz) per bacterium, as measured by flow cytometry. FIG. 2C is a graph showing uptake of fluorescent murG-207 DNAzyme in bacterial cells in a biofilm. Bacteria were grown under conditions favoring biofilm formation in TSB for 24 hours. Biofilm cells were separated from non-adhered cells, incubated with fluorescent murG-207 DNAzyme for 2 hours, and analyzed by flow cytometry. FIG. 2D is a graph showing uptake of DNAzymes in bacterial colonizing lung tissue samples (mouse lungs from naïve healthy mice). MDR-PA were grown with lung samples in DMEM with meropenem for 24 hours. […] In the histograms shown in FIGS. 2A, 2C, and 2D, arrows indicate which lines represent the basal fluorescence levels of the bacteria, and fluorescence of murG-207 DNAzyme with 3′cholesterol-TEG modification.
Flow cytometry. […] Data was analyzed using Kaluza Analysis 2.1 software using a C6 import module.
Intracellular DNAzyme quantification from bacterial cells. […] For intracellular extraction of the DNAzymes, cells were incubated for 10 minutes at 95° C., and supernatants were collected for quantification of intracellular DNAzymes. […]

With “5′-ACCACAATACCGAGATCGGTCGTGTCGGCATGA/3CholTEG/ (DNA, 3' {CholTEG}, backbone and methylation of C not given here) [Scr, control scramble DNAzyme, reference compound]” the “occurrence of areas thicker than 10 μm in dehydrated biofilms” value [1] was “composed of areas thicker than 10 μm, areas of about 10 μm, and significantly thinner areas”, the “biofilm formation (crystal violet)” value [2] was “did not show inhibition of biofilm formation” and the “viable cells within the biofilm (CFU)” value [2] was “did not show inhibition of biofilm formation or a reduction of viable cells”.
For “5′-CTTGACCAG ggctagctacaacga GACTTCAGG-Chol-TEG-3′ (DNA CTTGACCAGGGCTAGCTACAACGAGACTTCAGG; DNA, 3' {CholTEG}, backbone and methylation of C not given here) [murG-207, 10-23 DNAzyme targeting murG RNA transcript, cleavage site nt 207, 3′ cholesterol-TEG]”, the “effect on meropenem activity against pre-established biofilms” value (“effect on meropenem activity” for short) [3] was “potentiated the effect of meropenem”, the “reduction of biofilm biomasses” value [3] was roughly 1 log and the “average copy number of DNAzymes per cell” value [4] was “over 10,000 DNAzymes per cell”. For the same substance, the “biofilm formation (crystal violet)” value [2] was “biofilm inhibition” and the “viable cells within the biofilm (CFU)” value [2] was “significant reduction of viable cells”.
“5′-GATCAGGTG ggctagctacaacga AACGGCAGG-Chol-TEG-3′ (DNA GATCAGGTGGGCTAGCTACAACGAAACGGCAGG; DNA, 3' {CholTEG}, backbone and methylation of C not given here) [murG-162]” was tested, and the “effect on meropenem activity” value [3] was “potentiated the effect of meropenem”, the “reduction of biofilm biomasses” value [3] was roughly 1 log and the “occurrence of areas thicker than 10 μm in dehydrated biofilms” value [1] was “significantly reduced”. For the same substance, the “biofilm formation (crystal violet)” value [2] was “biofilm inhibition” and the “viable cells within the biofilm (CFU)” value [2] was “significant reduction of viable cells”.
With “5′-GGCGTTCTG ggctagctacaacga TCGTGGATC-Chol-TEG-3′ (DNA GGCGTTCTGGGCTAGCTACAACGATCGTGGATC; DNA, 3' {CholTEG}, backbone and methylation of C not given here) [murG-366, 10-23 DNAzyme targeting murG RNA transcript, cleavage site nt 366, 3′ cholesterol-TEG]” the “effect on meropenem activity” value [3] was “potentiated the effect of meropenem”, the “reduction of biofilm biomasses” value [3] was roughly 1 log and the “biofilm formation (crystal violet)” value [2] was “biofilm inhibition”. For the same substance, the “viable cells within the biofilm (CFU)” value [2] was “significant reduction of viable cells”.
